Measurements: US11492348B2, “Tri-substituted aryl and heteroaryl derivatives as modulators of PI3-kinase and autophagy pathways” (Neuropore Therapies, Inc., priority 2018, dated 2022)

Each compound was assayed against PI3Kα (Homo sapiens (Human), UniProt P42336) (assay: Inhibition of PI3Kα (ADP-Glo kinase activity assay, ATP to ADP conversion)). Conditions: 25 μM PIP2:PS, 60 μM ATP, 30 min reaction, luminescence.
Format: biochemical
Method: Quantification of ATP to ADP conversion as a measure of PI3Kα activity. Active PI3Kα (Life Technologies), in the presence or absence of PI3Kα inhibitor, was reacted with PIP2:PS (Life Technologies), a substrate specifically optimized for use with Class I PI3 kinases, and ultrapure ATP (Promega). The conversion of ATP to ADP by PI3Kα was measured as luminescence signal via Promega ADP-Glo kinase activity assay. Assay was validated using published PI3Kα inhibitors LY294002, PI-103, BYL719, GDC0198 and also DMSO vehicle control.
Compounds were prepared at 100× final concentration as a 12-point, 1:3 serial-dilution in DMSO series, with DMSO control as 12th point. Compound was then diluted in (25 mM HEPES pH 7.5, 1 mM EGTA, 0.3% CHAPS) prior to addition to PI3Kα. Active PI3Kα diluted to 0.24 ng/μL (1.1 nM) in (50 mM HEPES pH 7.5, 6 mM MgCl2, 1 mM EGTA, 200 mM NaCl, 0.03% CHAPS, 8 mM DTT) was incubated with compound for 0 hr and 3 hr prior to the start of the reaction. 25 μM PIP2:PS and 60 μM ATP were diluted from stock in (25 mM HEPES pH 7.5, 1 mM EGTA, 0.3% CHAPS) and added to initiate the PI3Kα reaction. Reaction time was 30 minutes. ATP to ADP conversion was measured in Luminescence Counts on DTX880 Plate Reader (Beckman Coulter). Compound IC50s were reported using GraphPad Prism software. Analytical method was non-linear regression, 4-parameter curve fit with bottom fit to validated PI3Kα inhibitor reference controls and no top fit (floating top).

Sequence of PI3Kα (P42336 whole entry): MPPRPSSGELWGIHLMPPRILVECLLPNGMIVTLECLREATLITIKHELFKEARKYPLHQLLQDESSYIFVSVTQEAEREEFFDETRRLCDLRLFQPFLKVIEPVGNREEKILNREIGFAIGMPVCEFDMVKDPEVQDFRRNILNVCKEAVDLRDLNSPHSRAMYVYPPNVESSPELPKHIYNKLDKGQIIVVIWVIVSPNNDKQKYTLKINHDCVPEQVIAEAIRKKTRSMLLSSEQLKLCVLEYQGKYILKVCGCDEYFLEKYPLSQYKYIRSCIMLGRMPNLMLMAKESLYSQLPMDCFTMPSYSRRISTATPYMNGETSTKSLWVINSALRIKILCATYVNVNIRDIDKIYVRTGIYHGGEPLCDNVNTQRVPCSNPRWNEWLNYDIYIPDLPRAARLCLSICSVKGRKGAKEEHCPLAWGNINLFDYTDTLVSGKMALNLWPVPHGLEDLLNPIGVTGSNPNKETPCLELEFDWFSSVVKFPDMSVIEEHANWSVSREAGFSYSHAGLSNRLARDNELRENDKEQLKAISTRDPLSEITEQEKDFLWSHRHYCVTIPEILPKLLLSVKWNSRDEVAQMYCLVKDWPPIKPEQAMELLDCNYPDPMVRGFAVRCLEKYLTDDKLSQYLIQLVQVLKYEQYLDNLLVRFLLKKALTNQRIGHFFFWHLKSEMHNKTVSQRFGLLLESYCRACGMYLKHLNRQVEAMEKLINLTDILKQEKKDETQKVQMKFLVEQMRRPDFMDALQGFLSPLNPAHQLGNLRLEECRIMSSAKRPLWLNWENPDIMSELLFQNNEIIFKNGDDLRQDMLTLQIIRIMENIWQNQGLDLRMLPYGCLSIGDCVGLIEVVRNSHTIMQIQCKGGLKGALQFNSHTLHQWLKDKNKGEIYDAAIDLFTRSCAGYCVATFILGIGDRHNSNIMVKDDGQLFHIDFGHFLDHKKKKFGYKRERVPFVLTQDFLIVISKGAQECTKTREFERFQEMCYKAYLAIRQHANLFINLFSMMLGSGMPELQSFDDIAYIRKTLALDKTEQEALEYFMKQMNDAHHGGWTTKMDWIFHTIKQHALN
Sequence of PI3Kα (P27986 whole entry partner): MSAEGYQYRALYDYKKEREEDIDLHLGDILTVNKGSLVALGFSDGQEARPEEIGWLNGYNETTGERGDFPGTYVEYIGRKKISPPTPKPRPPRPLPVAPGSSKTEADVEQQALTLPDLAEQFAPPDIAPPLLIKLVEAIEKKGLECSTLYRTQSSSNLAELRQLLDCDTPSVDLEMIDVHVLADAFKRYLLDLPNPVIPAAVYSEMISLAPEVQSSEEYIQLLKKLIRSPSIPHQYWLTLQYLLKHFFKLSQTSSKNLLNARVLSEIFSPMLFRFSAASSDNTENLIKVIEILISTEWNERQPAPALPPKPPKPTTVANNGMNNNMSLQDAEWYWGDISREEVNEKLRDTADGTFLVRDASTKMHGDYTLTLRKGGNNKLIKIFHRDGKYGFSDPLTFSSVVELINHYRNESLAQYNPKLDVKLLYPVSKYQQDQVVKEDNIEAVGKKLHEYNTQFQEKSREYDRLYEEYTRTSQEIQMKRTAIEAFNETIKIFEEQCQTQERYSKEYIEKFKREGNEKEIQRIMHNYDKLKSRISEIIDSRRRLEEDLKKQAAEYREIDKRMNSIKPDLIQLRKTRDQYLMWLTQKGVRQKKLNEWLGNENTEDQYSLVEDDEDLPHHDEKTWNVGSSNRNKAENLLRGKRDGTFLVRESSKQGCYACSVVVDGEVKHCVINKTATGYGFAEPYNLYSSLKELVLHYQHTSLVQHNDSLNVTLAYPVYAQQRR

| SMILES | PI3Ka IC50 |
| --- | --- |
| Nc1ncc(-c2cc(S(=O)(=O)C3CCOc4ccccc43)cc(N3CCOCC3)n2)cn1 (racemic) [Compound 143, 5-(4-(chroman-4-ylsulfonyl)-6-morpholinopyridin-2-yl)pyrimidin-2-amine] | 0.0017 µM |
| Nc1ncc(-c2cc(N3CCOCC3)cc(S(=O)(=O)Cc3ccccc3)c2)c(C(F)(F)F)n1 [Compound 33, 5-(3-(benzylsulfonyl)-5-morpholinophenyl)-4-(trifluoromethyl)pyrimidin-2-amine] | 0.98 µM |
| Nc1ncc(-c2cc(N3CCOCC3)cc(S(=O)(=O)c3ccc(N4CCOCC4)cc3)c2)cn1 [Compound 36, 5-(3-morpholino-5-((4-morpholinophenyl)sulfonyl)phenyl)pyrimidin-2-amine] | 1.1 µM |
| CCNC(=O)Nc1ccc(-c2cc(N3CCOCC3)cc(S(=O)(=O)Cc3ccc(F)cc3)c2)cc1OC [Compound 40, 1-ethyl-3-(3′-((4-fluorobenzyl)sulfonyl)-3-methoxy-5′-morpholino-[1,1′-biphenyl]-4-yl)urea] | 6.5 µM |
| O=C1COc2cc(-c3cc(N4CCOCC4)cc(S(=O)(=O)Cc4ccc(F)cc4)c3)ccc2N1 [Compound 42, 7-(3-((4-fluorobenzyl)sulfonyl)-5-morpholinophenyl)-2H-benzo[b][1,4]oxazin-3(4H)-one] | 4.7 µM |
| COc1ccc(-c2cc(N3CCOCC3)cc(S(=O)(=O)Cc3ccc(F)cc3)c2)cc1N [Compound 43, 3′-((4-fluorobenzyl)sulfonyl)-4-methoxy-5′-morpholino-[1,1′-biphenyl]-3-amine] | 11 µM |
| COc1nc(N)ccc1-c1cc(N2CCOCC2)cc(S(=O)(=O)Cc2ccc(F)cc2)c1 [Compound 44, 5-(3-((4-fluorobenzyl)sulfonyl)-5-morpholinophenyl)-6-methoxypyridin-2-amine] | 13 µM |
| O=S(=O)(Cc1ccc(F)cc1)c1cc(-c2ccc3c(c2)OCCN3)cc(N2CCOCC2)c1 [Compound 45, 7-(3-((4-fluorobenzyl)sulfonyl)-5-morpholinophenyl)-3,4-dihydro-2H-benzo[b][1,4]oxazine] | 5.9 µM |
| O=S(=O)(Cc1ccc(F)cc1)c1cc(-c2cccc(OC(F)(F)F)c2)cc(N2CCOCC2)c1 [Compound 46, 4-(5-((4-fluorobenzyl)sulfonyl)-3′-(trifluoromethoxy)-[1,1′-biphenyl]-3-yl)morpholine] | 19 µM |
| COc1cncc(-c2cc(N3CCOCC3)cc(S(=O)(=O)Cc3ccc(F)cc3)c2)c1 [Compound 55, 4-(3-((4-fluorobenzyl)sulfonyl)-5-(5-methoxypyridin-3-yl)phenyl)morpholine] | 12 µM |
| Nc1ncc(-c2cc(N3CCOCC3)cc(S(=O)(=O)C3CNC3)c2)cn1 [Compound 61, 5-(3-(azetidin-3-ylsulfonyl)-5-morpholinophenyl)pyrimidin-2-amine] | 0.50 µM |
| Nc1ncc(-c2cc(N3CCOCC3)cc(S(=O)(=O)CC3CCC(F)(F)CC3)c2)cn1 [Compound 64, 5-(3-(((4,4-difluorocyclohexyl)methyl)sulfonyl)-5-C21H26F2N4O3Smorpholinophenyl) pyrimidin-2-amine] | 1.1 µM |

Now from value to compound:

| PI3Ka IC50 | SMILES |
| --- | --- |
| 5.0 µM | COc1ncc(-c2cc(N3CCOCC3)cc(S(=O)(=O)c3ccccc3)c2)cn1 [Compound 2, 4-(3-(2-methoxypyrimidin-5-yl)-5-(phenylsulfonyl)phenyl)morpholine] |
| 2.0 µM | Nc1ncc(-c2cc(N3CCOCC3)cc(S(=O)(=O)c3ccccc3)c2)c(C(F)(F)F)n1 [Compound 3, 5-(3-morpholino-5-(phenylsulfonyl)phenyl)-4-(trifluoromethyl)pyrimidin-2-amine] |
| 11 µM | CN(C)c1ncc(-c2cc(N3CCOCC3)cc(S(=O)(=O)c3ccccc3)c2)cn1 [Compound 4, N,N-dimethyl-5-(3-morpholino-5-(phenylsulfonyl)phenyl)pyrimidin-2-amine] |
| 12 µM | COc1ccc(-c2cc(N3CCOCC3)cc(S(=O)(=O)c3ccccc3)c2)cn1 [Compound 5, 4-(3-(6-methoxypyridin-3-yl)-5-(phenylsulfonyl)phenyl)morpholine] |
| 3.8 µM | Nc1cc(C(F)(F)F)c(-c2cc(N3CCOCC3)cc(S(=O)(=O)c3ccccc3)c2)cn1 [Compound 6, 5-(3-morpholino-5-(phenylsulfonyl)phenyl)-4-(trifluoromethyl)pyridin-2-amine] |
| 1.8 µM | Nc1ncc(-c2cc(N3CCOCC3)cc(S(=O)(=O)c3cccc(C(F)(F)F)c3)c2)cn1 [Compound 7, 5-(3-morpholino-5-((3-(trifluoromethyl)phenyl)sulfonyl)phenyl) pyrimidin-2-amine] |
| 1.5 µM | Nc1ncc(-c2cc(N3CCOCC3)cc(S(=O)(=O)c3ccc4ccccc4c3)c2)cn1 [Compound 9, 5-(3-morpholino-5-(naphthalen-2-ylsulfonyl)phenyl)pyrimidin-2-amine] |
| 7.3 µM | Nc1ncc(-c2cc(N3CCOCC3)cc(S(=O)(=O)c3ccc(C(F)(F)F)cc3)c2)cn1 [Compound 14, 5-(3-morpholino-5-((4-(trifluoromethyl)phenyl)sulfonyl)phenyl) pyrimidin-2-amine] |
| 1.5 µM | CNc1ncc(-c2cc(N3CCOCC3)cc(S(=O)(=O)c3ccccc3)c2)cn1 [Compound 16, N-methyl-5-(3-morpholino-5-(phenylsulfonyl)phenyl)pyrimidin-2-amine] |
| 21 µM | CC(C)(C)OC(=O)N1CCN(c2cc(-c3cnc(N)nc3)cc(S(=O)(=O)c3ccccc3)c2)CC1 [Compound 24, tert-butyl 4-(3-(2-aminopyrimidin-5-yl)-5-(phenylsulfonyl)phenyl)piperazine-1-carboxylate] |
| 30 µM | Nc1ncc(-c2cc(N3CCCCC3)cc(S(=O)(=O)c3ccccc3)c2)cn1 [Compound 25, 5-(3-(phenylsulfonyl)-5-(piperidin-1-yl)phenyl)pyrimidin-2-amine] |
| 0.66 µM | CNc1ncc(-c2cc(N3CCOCC3)cc(S(=O)(=O)Cc3ccccc3)c2)cn1 [Compound 31, 5-(3-(benzylsulfonyl)-5-morpholinophenyl)-N-methylpyrimidin-2-amine] |
| 13 µM | Cc1cn2cc(-c3cc(N4CCOCC4)cc(S(=O)(=O)Cc4ccccc4)c3)cnc2n1 [Compound 34, 4-(3-(benzylsulfonyl)-5-(2-methylimidazo[1,2-a]pyrimidin-6-yl)phenyl)morpholine] |
| 2.0 µM | CC(C)(O)CNc1ccc(S(=O)(=O)c2cc(-c3cnc(N)nc3)cc(N3CCOCC3)c2)cc1 [Compound 37, 1-((4-((3-(2-aminopyrimidin-5-yl)-5-morpholinophenyl)sulfonyl)phenyl)amino)-2-methylpropan-2-ol] |

Same assay, conditions: 25 μM PIP2:PS, 60 μM ATP, 30 min reaction, luminescence; read-out: PI3Ka IC50

| IC50 | SMILES |
| --- | --- |
| 0.0045 µM | Nc1ncc(-c2cc(S(=O)(=O)C3CCOc4ccccc43)cc(N3CCOCC3)n2)cn1 (single isomer, unassigned; (+)) [(+) 143, 5-(4-(chroman-4-ylsulfonyl)-6-morpholinopyridin-2-yl)pyrimidin-2-amine] |
| 0.001 µM | Nc1ncc(-c2cc(S(=O)(=O)C3CCOc4ccccc43)cc(N3CCOCC3)n2)cn1 (single isomer, unassigned; (-)) [(−) 143, 5-(4-(chroman-4-ylsulfonyl)-6-morpholinopyridin-2-yl)pyrimidin-2-amine] |
